These results are taken from PubChem BioAssay (NCI).

Some test systems named below: NCI/ADR-RES ovarian; LOX IMVI melanoma; RPMI-8226 leukemia; SK-MEL-2 melanoma; SK-OV-3 ovarian; MOLT-4 leukemia; U251 CNS; CCRF-CEM leukemia; HL-60(TB) leukemia; SK-MEL-5 melanoma; T-47D breast; UO-31 renal; K-562 leukemia; HCT-15 colon; SF-295 CNS; NCI-H226 lung; SN12C renal; RXF 393 renal; NCI-H522 lung.
Experiment in all cases: NCI anticancer screen, dose series, 48 h

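Five compound concentrations were applied to cells in 96-well plates for 48 hours; endpoints were derived by simple linear interpolation of the resulting dose-response curve. TGI is the concentration that stops growth completely.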

As to `COC(=O)/C=C(\S/C(=C(/c1ccc(OC)cc1)n1cc(C(=O)OC)c(C(=O)OC)n1)c1ccc(OC)cc1)C(=O)OC`, the TGI is > 100 µM in the test on NCI/ADR-RES ovarian; 25.4 µM with LOX IMVI melanoma; > 100 µM in the test with RPMI-8226 leukemia; > 100 µM in the test with SK-MEL-2 melanoma; > 100 µM with SK-OV-3 ovarian; > 100 µM in the test with MOLT-4 leukemia. In addition, the TGI was > 100 µM in the test on U251 CNS; 15.4 µM in the test with CCRF-CEM leukemia; 7.64 µM with HL-60(TB) leukemia; > 100 µM with SK-MEL-5 melanoma; 10.2 µM in the test on T-47D breast; 16 µM in the test with UO-31 renal. The TGI in the test on K-562 leukemia is > 100 µM; in the test on HCT-15 colon it was 37.9 µM; in the test on SF-295 CNS, > 100 µM; in the test with NCI-H226 lung it was > 100 µM; with SN12C renal it was 51.4 µM; in the test on RXF 393 renal, 29.4 µM.

Turning to `CCCCc1ccc(N2C(=O)c3cccnc3S2(=O)=O)cc1`, the TGI in the test with NCI/ADR-RES ovarian, with RPMI-8226 leukemia, with SK-MEL-2 melanoma, with SK-OV-3 ovarian, in the test on MOLT-4 leukemia and with U251 CNS was > 100 µM each time. Also, the TGI in the test on CCRF-CEM leukemia, in the test on HL-60(TB) leukemia, with T-47D breast, in the test with UO-31 renal, in the test on K-562 leukemia and with HCT-15 colon was > 100 µM each time. Moreover, the TGI in the test on SF-295 CNS, in the test on NCI-H226 lung, with SN12C renal, in the test on NCI-H522 lung and in the test with RXF 393 renal was > 100 µM throughout.

Regarding `Cc1ccccc1NC(=O)/C(C#N)=N\Nc1nc[nH]c1C(N)=O`, the TGI in the test with NCI/ADR-RES ovarian, in the test on RPMI-8226 leukemia, in the test on SK-MEL-2 melanoma, with SK-OV-3 ovarian, with MOLT-4 leukemia and in the test with U251 CNS was > 100 µM in each case. For the same compound, the TGI with CCRF-CEM leukemia, in the test on HL-60(TB) leukemia, in the test with SK-MEL-5 melanoma, in the test on T-47D breast, in the test on UO-31 renal and with K-562 leukemia was > 100 µM in each case. The TGI in the test with HCT-15 colon, with SF-295 CNS, in the test on NCI-H226 lung, with SN12C renal, in the test on NCI-H522 lung and in the test on RXF 393 renal was > 100 µM each time.

For `O=C(/C=C\c1ccccc1-c1ccccc1)c1ccccc1`, the TGI with NCI/ADR-RES ovarian, in the test on RPMI-8226 leukemia, in the test on SK-OV-3 ovarian, in the test with MOLT-4 leukemia, in the test on U251 CNS and in the test on CCRF-CEM leukemia was > 100 µM in each case. The TGI is > 100 µM in the test with HL-60(TB) leukemia; > 100 µM with SK-MEL-5 melanoma; 96 µM in the test on T-47D breast; > 100 µM with UO-31 renal; > 100 µM with K-562 leukemia; > 100 µM with HCT-15 colon. For the same compound, the TGI with SF-295 CNS, in the test on NCI-H226 lung, with SN12C renal, in the test on NCI-H522 lung and in the test on RXF 393 renal was > 100 µM each time.

For the compound `COC(=O)[C@]12CSC[C@H]1C[C@H](c1ccc(N(C)C)cc1)N2`, the TGI in the test on NCI/ADR-RES ovarian was > 100 µM; in the test with LOX IMVI melanoma, > 100 µM; in the test on RPMI-8226 leukemia it was > 31.6 µM; in the test on SK-MEL-2 melanoma it was > 100 µM; in the test with SK-OV-3 ovarian, > 100 µM; in the test with MOLT-4 leukemia, > 100 µM. Besides, the TGI in the test with U251 CNS, in the test with CCRF-CEM leukemia, in the test with HL-60(TB) leukemia, with SK-MEL-5 melanoma, in the test on T-47D breast and with UO-31 renal was > 100 µM in each case. For the same compound, the TGI with K-562 leukemia, in the test with HCT-15 colon, with SF-295 CNS, in the test on NCI-H226 lung, with SN12C renal and with RXF 393 renal was > 100 µM in each case.

For the compound `NC(=S)N/N=C(/C(=O)Nc1nc2ccc([N+](=O)[O-])cc2s1)C1C(=O)NC(=S)NC1=O`, the TGI in the test with NCI/ADR-RES ovarian, in the test with LOX IMVI melanoma, in the test on RPMI-8226 leukemia, with SK-MEL-2 melanoma, with SK-OV-3 ovarian and in the test on MOLT-4 leukemia was > 100 µM each time. In addition, the TGI in the test on U251 CNS, in the test with CCRF-CEM leukemia, in the test with HL-60(TB) leukemia, in the test on T-47D breast, with UO-31 renal and in the test with K-562 leukemia was > 100 µM in each case. Besides, the TGI in the test with HCT-15 colon, in the test on SF-295 CNS, in the test on NCI-H226 lung, with SN12C renal and with RXF 393 renal was > 100 µM each time.
